{"source": "patent US20150352081A1", "about": "“USE OF PIDOTIMOD TO TREAT ATOPIC DERMATITIS” (POLICHEM S.A., priority 2012, published 2015)", "key": {"[1]": {"tested_on": "patients affected by atopic dermatitis", "assay": "Safety/tolerability of the treatment in patients with atopic dermatitis", "type": "in vivo, human", "details": "5 patients, two applications daily, 12 weeks", "experimental": "(§1) An evaluation of the activity of pidotimod was tested on patients affected by atopic dermatitis, in order to assess the efficacy in terms of improvement of the pathology by means of erythema evaluation. The safety of the treatment was also evaluated. The study was performed in 5 patients (4 females and 1 male, aged between 22-35 years, mean=29) with a clinical diagnosis of atopic dermatitis having as inclusion criteria the affection of the anterior flexural crease of the elbow or of the knee.\n(§2) The study product was taken with the composition of the Example 1 at a dosage of two applications daily on the affected skin.\n(§3) During the trial, the following visits were performed: • baseline—T0 (before the product use) • intermediate visit—T6 (after 6 weeks of treatment) • final visit—T12 (after 12 weeks of treatment)"}, "[2]": {"tested_on": "patients affected by atopic dermatitis", "assay": "Erythema score in patients with atopic dermatitis treated topically with pidotimod cream", "type": "in vivo, human", "design": "Effect on erythema score: dose or concentration left out as unconfirmed", "experimental": "as §1, §2, §3\nThe efficacy of the product was expressed by mean of a 5 points erythema score, assessing the score at the baseline, at the intermediate visit and the final one."}}, "note": "Square brackets hold non-standard residues; d marks the D form. Peptide text beside a SMILES is read from it. pGlu = O=C1CC[C@@H](C(=O)O)N1; Thz = O=C(O)[C@@H]1CSCN1"}
{"smiles": "O=C1CC[C@@H](C(=O)N2CSC[C@H]2C(=O)O)N1", "note": "[pidotimod, (4R)-3-(5-oxo-L-prolyl)-1,3-thiazolidine-4-carboxylic acid] ([pGlu]-[Thz]-OH)", "values": [{"measurement": "Side effects", "setting": "[1]", "value": "no side effects were reported"}, {"measurement": "Tolerability of the treatment", "setting": "[1]", "value": "very well tolerated"}, {"measurement": "Student t test p of the erythema score change", "setting": "[2]; T12 (12 weeks) vs. T0 (baseline)", "value": "< 0.05"}, {"measurement": "Effect on erythema score", "setting": "[2]; pidotimod cream, two applications daily, 12 weeks, compared to the baseline", "value": "able to improve the erythema score"}]}
